# Results from the supplement of paper PMC10307832.
# Key:
# Assay in all cases: relative viability (nuclei count vs DMSO), 5 days (fraction); higher = more cells survive
# KN-93 = compound: CN(C/C=C/C1=CC=C(C=C1)Cl)CC2=CC=CC=C2N(CCO)S(=O)(=O)C3=CC=C(C=C3)OC [KN-93]
# Summary of the method: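 Lung cancer cell lines in 1536-well plates were exposed by pinning to five library-drug doses (not always all listed) √10 apart, following an overnight hold at 37 °C. MetaXpress counted Hoechst-stained nuclei from 4× images taken after 5 days without medium change. Viability is the median ratio of treated-well to vehicle-well nuclei across plates. Plates required control CV below 25% and at least one doubling.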
# KN-93 + Navitoclax = compound: CN(C/C=C/C1=CC=C(C=C1)Cl)CC2=CC=CC=C2N(CCO)S(=O)(=O)C3=CC=C(C=C3)OC [KN-93] + CC1(C)CCC(c2ccc(Cl)cc2)=C(CN2CCN(c3ccc(C(=O)NS(=O)(=O)c4ccc(N[C@H](CCN5CCOCC5)CSc5ccccc5)c(S(=O)(=O)C(F)(F)F)c4)cc3)CC2)C1 [Navitoclax] (partner 0.5 µM)
# Summary of the method: (§1)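 Lung cancer cell lines were seeded in 1536-well plates and dosed by pin tool the next day, with either a single drug or a fixed anchor-drug dose combined with five library-drug doses (not always all listed) spaced in √10 steps. Five days later, one step fixed the cells and stained their nuclei (final 0.05% Triton X-100, 1% formaldehyde, 1 ug/ml Hoechst), and nuclei were counted on 4× images. Relative viability is the nuclei count in treated wells divided by the count in vehicle wells, and each value is the median of duplicate plates.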
# KN-93 + Linsitinib = compound: CN(C/C=C/C1=CC=C(C=C1)Cl)CC2=CC=CC=C2N(CCO)S(=O)(=O)C3=CC=C(C=C3)OC [KN-93] + C[C@]1(O)C[C@@H](c2nc(-c3ccc4ccc(-c5ccccc5)nc4c3)c3c(N)nccn32)C1 [Linsitinib] (partner 1 µM)
# Summary of the method: as §1
# KN-93 + Bortezomib = compound: CN(C/C=C/C1=CC=C(C=C1)Cl)CC2=CC=CC=C2N(CCO)S(=O)(=O)C3=CC=C(C=C3)OC [KN-93] + CC(C)C[C@H](NC(=O)[C@H](Cc1ccccc1)NC(=O)c1cnccn1)B(O)O [Bortezomib] (partner 0.002 µM)
# Summary of the method: as §1
# KN-93 + Crizotinib = compound: CN(C/C=C/C1=CC=C(C=C1)Cl)CC2=CC=CC=C2N(CCO)S(=O)(=O)C3=CC=C(C=C3)OC [KN-93] + C[C@@H](Oc1cc(-c2cnn(C3CCNCC3)c2)cnc1N)c1c(Cl)ccc(F)c1Cl [Crizotinib] (partner 1 µM)
# Summary of the method: as §1
# KN-93 + Pictilisib = compound: CN(C/C=C/C1=CC=C(C=C1)Cl)CC2=CC=CC=C2N(CCO)S(=O)(=O)C3=CC=C(C=C3)OC [KN-93] + CS(=O)(=O)N1CCN(Cc2cc3nc(-c4cccc5[nH]ncc45)nc(N4CCOCC4)c3s2)CC1 [Pictilisib] (partner 1 µM)
# Summary of the method: as §1
# KN-93 + Lapatinib = compound: CN(C/C=C/C1=CC=C(C=C1)Cl)CC2=CC=CC=C2N(CCO)S(=O)(=O)C3=CC=C(C=C3)OC [KN-93] + CS(=O)(=O)CCNCc1ccc(-c2ccc3ncnc(Nc4ccc(OCc5cccc(F)c5)c(Cl)c4)c3c2)o1 [Lapatinib] (partner 2 µM)
# Summary of the method: as §1
# KN-93 + Foretinib = compound: CN(C/C=C/C1=CC=C(C=C1)Cl)CC2=CC=CC=C2N(CCO)S(=O)(=O)C3=CC=C(C=C3)OC [KN-93] + COc1cc2c(Oc3ccc(NC(=O)C4(C(=O)Nc5ccc(F)cc5)CC4)cc3F)ccnc2cc1OCCCN1CCOCC1 [Foretinib] (partner 0.25 µM)
# Summary of the method: as §1
# KN-93 + Olaparib = compound: CN(C/C=C/C1=CC=C(C=C1)Cl)CC2=CC=CC=C2N(CCO)S(=O)(=O)C3=CC=C(C=C3)OC [KN-93] + O=C(c1cc(Cc2n[nH]c(=O)c3ccccc23)ccc1F)N1CCN(C(=O)C2CC2)CC1 [Olaparib] (partner 8 µM)
# Summary of the method: as §1
# KN-93 + Alpelisib = compound: CN(C/C=C/C1=CC=C(C=C1)Cl)CC2=CC=CC=C2N(CCO)S(=O)(=O)C3=CC=C(C=C3)OC [KN-93] + Cc1nc(NC(=O)N2CCC[C@H]2C(N)=O)sc1-c1ccnc(C(C)(C)C(F)(F)F)c1 [Alpelisib] (partner 2 µM)
# Summary of the method: as §1
cell line,measurement,setting,value
EBC-1,relative viability,KN-93; 0.253 µM,1.03
same,relative viability,KN-93; 2.53 µM,1.01
same,relative viability,KN-93; 8 µM,0.693
same,relative viability,KN-93 + Navitoclax; first compound 0.08 µM,0.375
same,relative viability,KN-93 + Navitoclax; first compound 0.253 µM,0.337
same,relative viability,KN-93 + Navitoclax; first compound 2.53 µM,0.274
same,relative viability,KN-93 + Navitoclax; first compound 8 µM,0.178
same,relative viability,KN-93 + Linsitinib; first compound 0.08 µM,0.905
same,relative viability,KN-93 + Linsitinib; first compound 0.253 µM,0.907
same,relative viability,KN-93 + Linsitinib; first compound 2.53 µM,1.07
same,relative viability,KN-93 + Linsitinib; first compound 8 µM,0.869
same,relative viability,KN-93 + Bortezomib; first compound 0.08 µM,0.577
same,relative viability,KN-93 + Bortezomib; first compound 0.253 µM,0.492
same,relative viability,KN-93 + Bortezomib; first compound 2.53 µM,0.426
same,relative viability,KN-93 + Bortezomib; first compound 8 µM,0.243
same,relative viability,KN-93 + Crizotinib; first compound 2.53 µM,0.216
same,relative viability,KN-93 + Crizotinib; first compound 8 µM,0.192
same,relative viability,KN-93 + Pictilisib; first compound 0.253 µM,0.317
same,relative viability,KN-93 + Pictilisib; first compound 2.53 µM,0.343
same,relative viability,KN-93 + Pictilisib; first compound 8 µM,0.224
same,relative viability,KN-93 + Lapatinib; first compound 2.53 µM,0.183
same,relative viability,KN-93 + Lapatinib; first compound 8 µM,0.233
same,relative viability,KN-93 + Foretinib; first compound 0.253 µM,0.0885
same,relative viability,KN-93 + Foretinib; first compound 2.53 µM,0.12
same,relative viability,KN-93 + Foretinib; first compound 8 µM,0.124
same,relative viability,KN-93 + Olaparib; first compound 0.08 µM,0.652
same,relative viability,KN-93 + Olaparib; first compound 0.253 µM,0.69
same,relative viability,KN-93 + Olaparib; first compound 2.53 µM,0.652
same,relative viability,KN-93 + Olaparib; first compound 8 µM,0.52
same,relative viability,KN-93 + Alpelisib; first compound 0.08 µM,0.821
same,relative viability,KN-93 + Alpelisib; first compound 0.253 µM,0.889
same,relative viability,KN-93 + Alpelisib; first compound 2.53 µM,0.599
same,relative viability,KN-93 + Alpelisib; first compound 8 µM,0.497
